Where two headings read alike, the source gives them in different places.
Experiments:
procaspase-3 [1] = target: T1, procaspase-3 (Homo sapiens (Human), UniProt P42574); assay: In vitro activation of purified procaspase-3 (activation curves, Ac-DEVD-pNA); format: biochemical; conditions: for EC50: read-out: EC50 for activation of procaspase-3
Experimental: Activation curves. […] The plate was read every 2 minutes at 405 nm for 2 hours in a Spectra Max Plus 384 well plate reader. The slope of the linear portion for each well was determined and the fold increase in activation from non-treated control wells was calculated. […]

procaspase-3 mutant DAD = procaspase-3 mutant DAD (Homo sapiens, UniProt P42574, D180A); assay: Activation of safety catch mutant procaspase-3 (DAD); format: biochemical; conditions: Asp-Ala-Asp mutant
Chain of procaspase-3 mutant DAD (P42574 29-175 limits assumed): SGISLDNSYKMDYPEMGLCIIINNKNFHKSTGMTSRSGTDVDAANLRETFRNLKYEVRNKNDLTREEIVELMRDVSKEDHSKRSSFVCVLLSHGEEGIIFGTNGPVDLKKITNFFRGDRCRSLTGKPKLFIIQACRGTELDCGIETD
Chain of procaspase-3 mutant DAD (P42574 176-277 D180A limits assumed): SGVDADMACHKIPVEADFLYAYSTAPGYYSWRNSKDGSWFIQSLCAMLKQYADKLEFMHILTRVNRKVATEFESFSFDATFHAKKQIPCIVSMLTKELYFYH
Description: (§1) Safety catch mutations. The DDD procaspase-3 safety catch (SEQ ID NO:1; SEQ ID NO:2; SEQ ID NO:9) was mutated to ADD (SEQ ID NO:3, SEQ ID NO:4, SEQ ID NO:10), DAD (SEQ ID NO:5, SEQ ID NO:6, SEQ ID NO:11) and DDA (SEQ ID NO:7, SEQ ID NO:8, SEQ ID NO:12) using the quickchange strategy with the following primers, gacagacagtggtgttgCGgatgacatggcgtgtcataaaatacc (SEQ ID NO:13), gacagacagtggtgttgatgCtgacatggcgtgtcataaaatacc (SEQ ID NO:14) and gacagacagtggtgttgatgatgCcatggcgtgtcataaaatacc (SEQ ID NO:15) respectively. See also FIG. 9 and FIG. 10. Mutated bases are underlined and capitalized. All mutant plasmids were sequenced to ensure proper sequence throughout the gene. All mutant plasm ids were expressed exactly as wild-type procaspase-3 as described above. […] The plate was then incubated for 12 hours at 37° C. 10 μL of a 2 mM solution of Ac-DEVD-pNA (SEQ ID NO: 28) in caspase assay buffer was then added to each well. The plate was read every 2 minutes at 405 nm for 2 hours in a Spectra Max Plus 384 well plate reader. The slope of the linear portion for each well was determined and the fold increase in activity for each mutant was calculated.

procaspase-3 mutant DDA = procaspase-3 mutant DDA (Homo sapiens, UniProt P42574, D181A); assay: Activation of safety catch mutant procaspase-3 (DDA); format: biochemical
Chain of procaspase-3 mutant DDA (P42574 29-175 limits assumed): as the sequence (P42574 29-175 limits assumed) above
Chain of procaspase-3 mutant DDA (P42574 176-277 D181A limits assumed): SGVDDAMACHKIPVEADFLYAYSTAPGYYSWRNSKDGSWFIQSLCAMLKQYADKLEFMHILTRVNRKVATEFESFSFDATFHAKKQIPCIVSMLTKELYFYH
Description: as §1

procaspase-3 [2] = target: T1, procaspase-3; assay: PAC-1 activation gel (Western blot of procaspase-3 cleavage); format: biochemical
Experimental: Procaspase-3 was expressed and isolated exactly as above. Procaspase-3 was diluted to about 50 μg/mL in caspase assay buffer. […] After this incubation, an equal volume of load buffer (150 mM NaCl, 50 mM Tris, 2% SDS, 20% glycerol, pH 8.0) was added to each procaspase-3 sample. All samples were then stored at −80° C. until the time-course was completed. All samples were then incubated at 95° C. for 5 minutes and run on a 12% SDS-PAGE gel. Proteins were then transferred to nitrocellulose paper overnight. Blots were washed in TTBS (150 mM NaCl, 50 mM Tris, 0.1% Tween-20, pH 7.4) and blocked with a 10% milk solution for 2 hours. Blots were then incubated in a 1:5000 dilution of anti-Penta His Alexa Fluor 647 antibody for 2 hours. The blot was then washed with TTBS and scanned on a Typhoon fluorescence scanner (Amersham Biosciences, Sunnyvale Calif.).

[3] = system: primary colon cancer cells; assay: Cell death in primary cancerous cells from resected colon tumors; format: cell-based, human
[4] = system: white blood cells from bone marrow, Hs888Lu, MCF-10A, Hs578Bst; assay: Cell death in four non-cancerous cell types; format: cell-based
HL-60 cells [5] = assay: Condensed chromatin staining (Hoechst); format: cell-based, human; conditions: HL-60, 20 h, 100 μM
Experimental: The cells were then washed in PBS buffer followed by the addition of ice-cold 100% ethanol. The cells were fixed overnight at 4° C. Fixed cells were incubated with 2 μg/mL Hoechst-33258 for 30 minutes at room temperature. A drop of cells was then added to a microscope slide and covered with a No. 1 thickness coverslip.

HL-60 cells [6] = assay: Cell death inhibition by z-vad-fmk; format: cell-based, human
Experimental: Cell death inhibition by z-vad-fmk. 100 μL HL-60 cells at a concentration of 5×10^5 cells/mL were added to the wells of a 96-well plate. The cells were then incubated for 1 hour in the presence or absence of 100 μM z-vad-fmk, a cell-permeable pan caspase inhibitor. […] The plates were incubated at 37° C. for approximately 45 minutes until the colored product formed.

[7] = system: mitochondrial membrane depolarization in HL-60 cells; assay: Mitochondrial membrane potential (JC-9) in HL-60; format: cell-based, human
Experimental: The cells were incubated for various times, and the cells then were harvested by centrifugation. The cells were washed in PBS and resuspended in 1 mL of PBS. 10 μg of the JC-9 dye was added and the cells were incubated at room temperature for 10 minutes protected from light. The cells were then washed two times with PBS and brought up in 500 μL PBS. The fluorescent intensity of each cell was determined by flow cytometry at 525 nm (green channel) and 675 nm (red channel). 50,000 cells were analyzed in each experiment. The shift in the red channel was then used to determine the amount of mitochondrial membrane depolarization.

[8] = system: NCI-H226 (lung cancer) xenograft; assay: NCI-H226 xenograft, intraperitoneal PAC-1; format: in vivo, mice; conditions: i.p. 10 mg/kg
Experimental: A xenograft model was employed using NCI-H226 (lung cancer) cells. […] A comparison of efficacy was performed with gefitinib (Iressa™; AstraZeneca, Wilmington, Del.) at 40 mg/kg using 5 mice per group.

[9] = Plasma PAC-1 content after pellet implantation; format: in vivo, mice; conditions: female, athymic BALB/c (nude), mouse, other: implantation of a pellet of PAC-1 and cholesterol, 5 mg pellet, after the 54 day experiment
Experimental: PAC-1 was evaluated in a mouse xenograft model using a slow release mode of drug delivery. In this model, subcutaneous tumors were formed in ovariectomized female athymic BALB/c (nude) mice using the ACHN (renal cancer) cell line. […] Tumor sizes were monitored for about 8 weeks. […] After the mice were sacrificed, plasma samples were taken from each mouse, and the PAC-1 content of each was analyzed.

procaspase-3 [10] = target: T1, procaspase-3; assay: Western blot of in vitro procaspase-3 activation by DX compounds; format: biochemical; conditions: 50 micromolar compound, about 35 nanomolar procaspase-3, 8 hr
Experimental: Certain compounds were also tested for the ability to effect in vitro activation of procaspase-3.

HL-60 cell line = assay: IC50 of PAC-1 derivatives in HL-60 cell line (Table 5); format: cell-based
Description: The results are indicated in Table 5 (where L- and R-designations refer to structures shown in the AX and BX series above, respectively).

T1 sequence (P42574 whole entry): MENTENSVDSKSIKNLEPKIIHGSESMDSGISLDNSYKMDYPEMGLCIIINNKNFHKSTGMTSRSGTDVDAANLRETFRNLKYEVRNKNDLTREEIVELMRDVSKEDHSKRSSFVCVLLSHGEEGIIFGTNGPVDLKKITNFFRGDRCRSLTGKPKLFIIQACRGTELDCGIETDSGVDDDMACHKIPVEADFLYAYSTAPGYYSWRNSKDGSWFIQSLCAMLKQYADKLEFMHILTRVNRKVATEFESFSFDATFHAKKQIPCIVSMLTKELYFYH

**Q.** Which “procaspase-3 activation in vitro (in words)” value (procaspase-3 [1]) does the source give for `C=CCc1cccc(/C=N/NC(=O)CN2CCN(Cc3ccccc3)CC2)c1O` [PAC-1] here?
**A.** Its value is “activate procaspase-3 in vitro”.

**Q.** What about the “Activity (direct activation of purified procaspase-3 in vitro)” value (procaspase-3 [1]; Table 2) of the same molecule?
**A.** The value was “Active”.

**Q.** What about the EC50 (procaspase-3 [1]; in vitro) of the same molecule?
**A.** Its EC50 is roughly 0.22 µM.

**Q.** And the EC50 (procaspase-3 [1]; wild type procaspase-3 (DDD))?
**A.** Its EC50 is 0.22 µM.

**Q.** And the EC50 (procaspase-3 mutant DAD)?
**A.** The EC50 was 2.77 µM.

**Q.** What about the EC50 (procaspase-3 mutant DDA) of the same molecule?
**A.** The EC50 was 113 µM.

**Q.** What about the “effectiveness in procaspase-3 cleavage assay” value (procaspase-3 [2]; 5 μM) of the same molecule?
**A.** Its value is “effective”.

**Q.** And the “time to cleavage generating the p19 fragment” value (procaspase-3 [2]; 100 μM PAC-1)?
**A.** Its value is no more than 1 h.

**Q.** And the “cleavage (processing) of procaspase-3” value (procaspase-3 [2]; 100 μM PAC-1, after 4 hours)?
**A.** Its value is greater than 50%.

**Q.** And the “sensitivity of cells in cancerous tissue in comparison with normal tissue” value ([3]; FIG. 6B, Patient 3)?
**A.** The value was “greater than 80 fold”.

**Q.** What about the IC50 ([3]; Homo sapiens, read-out: IC50 in cancer cells from patient 17, patient 17) of the same molecule?
**A.** The IC50 was 0.007 µM.

**Q.** What about the “sensitivity of cancer cells versus cells from adjacent normal tissue” value ([3]; patient 17) of the same molecule?
**A.** The value was “over 700 fold”.

**Q.** And the IC50 [4]?
**A.** The IC50 was 3.2 to 8.5 µM.

**Q.** And the chromatin condensation (HL-60 cells [5])?
**A.** Its chromatin condensation is “significant chromatin condensation”.

**Q.** What about the “toxicity in the presence of caspase inhibitor z-VAD-fmk” value (HL-60 cells [6]) of the same molecule?
**A.** Its value is “abolished”.

**Q.** And the mitochondrial membrane depolarization [7]?
**A.** The mitochondrial membrane depolarization was “causes mitochondrial membrane depolarization”.

**Q.** What about the “growth in tumor volume, NCI-H226 xenograft” value [8] of the same molecule?
**A.** Its value is “associated with reducing growth in tumor volume”.

**Q.** What about the concentration at 54 day [9] of the same molecule?
**A.** Its concentration at 54 day is 5 nM.

**Q.** What about the “in vitro activation of procaspase-3 (Western blot) relative to control” value (procaspase-3 [10]) of the same molecule?
**A.** The value was “substantial activity levels”.

**Q.** And the “Fold better than PAC-1” value (HL-60 cell line; HL-60 IC50 relative to PAC-1)?
**A.** Its value is 1.0 fold.

**Q.** What about the IC50 (HL-60 cell line; Homo sapiens, HL-60, Table 5) of the same molecule?
**A.** The IC50 was 54.6 µM.

From patent publication US10166229B2, “Compounds and methods for the treatment of cancer” (The Board of Trustees of the University of Illinois, priority 2005, dated 2019)
